Reference: article PMC8003485, “Synthesis and Evaluation of Novel α-Aminoamides Containing Benzoheterocyclic Moiety for the Treatment of Pain” (Molecules, 2021)
Read-outs that look alike come from different tables or passages of the source.

Key:
[1] = biological target: T1, hNav1.8 (Homo sapiens, UniProt Q9Y5Y9); test: Whole-cell patch clamp assay for hNav1.8 inhibition (CHO cells stably expressing hNav1.8); assay type: cell-based; conditions: for IC50: Nav1.8 inactivated state Na+ currents
T1 construct: expressed in transfected cells; host or cells: CHO
Experimental: The whole-cell patch clamp assay assessing the hNav1.8 current was carried out at room temperature with Chinese hamster ovary cells stably expressing hNav1.8. The holding voltage of the membrane was transferred to 0 mV from −120 mV for 50 ms and then restored to −50 mV for 8 s. After that, the membrane potential was renewed to −120 mV for 20 ms, which was followed by a depolarization to 0 mV for 50 ms. Finally, the potential was recovered to the holding voltage of −120 mV for 30 ms. This process was performed every 20 s. The compounds were administered when the voltage of hNav1.8 was stable. Every compound concentration was tested for 5 min, and all compounds were tested at several concentrations and with multiple cells.

[2] = system: ICR (CD-1) male mice; test: Acetic acid-induced writhing test; assay type: in vivo; conditions: 10 mg/kg, i.p.; writhes in 20 min; mean ± SD, n = 6
Experimental: The writhing test was performed according to a previously reported method. The ICR (CD-1) male mice (weight: 22–25 g) were treated as for the formalin test in the same environment. The mice were divided into a vehicle group, a ralfinamide group, and test compound groups randomly, with six mice in each group. All compounds were dissolved in saline and administered by intraperitoneal injection at 10 mg/kg. The vehicle group was given the same volume of saline. After administration, the mice were placed into PVC chambers. Thirty minutes later, the mice were injected with 1% acetic acid solution at 10 mL/kg by intraperitoneal injection and placed into the observation chambers immediately to record the number of writhes each mouse had in 20 min. The results were presented as the mean ± standard deviation. The analytical method was the same as that for the formalin test, and the analgesic activity of each compound was calculated by the following formula. %Analgesia=Average Number (Vehicle)−Average Number (Drug)/Average Number (Vehicle)× 100%

[3] = system: mouse; test: Mouse hotplate assay; assay type: in vivo; conditions: even at a high dose of 100 mg/kg; data not shown
[4] = system: mouse; test: Mouse tail flick assay; assay type: in vivo; conditions: even at a high dose of 100 mg/kg; data not shown
[5] = biological target: T2, hNav1.5 (Homo sapiens, UniProt Q14524); test: Assay for hNav1.5 inhibition (HEK293 cells stably expressing hNav1.5); assay type: cell-based; conditions: for inhibition at 10 µM: HEK293, read-out: Inhibitory Effect to Nav1.5; for Inhibitory activity against Nav1.5 (in words): similarly to ralfinamide, low selectivity over the cardiac sodium channel
T2 construct: expressed in transfected cells; host or cells: HEK293
T2 sequence (Q14524 whole entry): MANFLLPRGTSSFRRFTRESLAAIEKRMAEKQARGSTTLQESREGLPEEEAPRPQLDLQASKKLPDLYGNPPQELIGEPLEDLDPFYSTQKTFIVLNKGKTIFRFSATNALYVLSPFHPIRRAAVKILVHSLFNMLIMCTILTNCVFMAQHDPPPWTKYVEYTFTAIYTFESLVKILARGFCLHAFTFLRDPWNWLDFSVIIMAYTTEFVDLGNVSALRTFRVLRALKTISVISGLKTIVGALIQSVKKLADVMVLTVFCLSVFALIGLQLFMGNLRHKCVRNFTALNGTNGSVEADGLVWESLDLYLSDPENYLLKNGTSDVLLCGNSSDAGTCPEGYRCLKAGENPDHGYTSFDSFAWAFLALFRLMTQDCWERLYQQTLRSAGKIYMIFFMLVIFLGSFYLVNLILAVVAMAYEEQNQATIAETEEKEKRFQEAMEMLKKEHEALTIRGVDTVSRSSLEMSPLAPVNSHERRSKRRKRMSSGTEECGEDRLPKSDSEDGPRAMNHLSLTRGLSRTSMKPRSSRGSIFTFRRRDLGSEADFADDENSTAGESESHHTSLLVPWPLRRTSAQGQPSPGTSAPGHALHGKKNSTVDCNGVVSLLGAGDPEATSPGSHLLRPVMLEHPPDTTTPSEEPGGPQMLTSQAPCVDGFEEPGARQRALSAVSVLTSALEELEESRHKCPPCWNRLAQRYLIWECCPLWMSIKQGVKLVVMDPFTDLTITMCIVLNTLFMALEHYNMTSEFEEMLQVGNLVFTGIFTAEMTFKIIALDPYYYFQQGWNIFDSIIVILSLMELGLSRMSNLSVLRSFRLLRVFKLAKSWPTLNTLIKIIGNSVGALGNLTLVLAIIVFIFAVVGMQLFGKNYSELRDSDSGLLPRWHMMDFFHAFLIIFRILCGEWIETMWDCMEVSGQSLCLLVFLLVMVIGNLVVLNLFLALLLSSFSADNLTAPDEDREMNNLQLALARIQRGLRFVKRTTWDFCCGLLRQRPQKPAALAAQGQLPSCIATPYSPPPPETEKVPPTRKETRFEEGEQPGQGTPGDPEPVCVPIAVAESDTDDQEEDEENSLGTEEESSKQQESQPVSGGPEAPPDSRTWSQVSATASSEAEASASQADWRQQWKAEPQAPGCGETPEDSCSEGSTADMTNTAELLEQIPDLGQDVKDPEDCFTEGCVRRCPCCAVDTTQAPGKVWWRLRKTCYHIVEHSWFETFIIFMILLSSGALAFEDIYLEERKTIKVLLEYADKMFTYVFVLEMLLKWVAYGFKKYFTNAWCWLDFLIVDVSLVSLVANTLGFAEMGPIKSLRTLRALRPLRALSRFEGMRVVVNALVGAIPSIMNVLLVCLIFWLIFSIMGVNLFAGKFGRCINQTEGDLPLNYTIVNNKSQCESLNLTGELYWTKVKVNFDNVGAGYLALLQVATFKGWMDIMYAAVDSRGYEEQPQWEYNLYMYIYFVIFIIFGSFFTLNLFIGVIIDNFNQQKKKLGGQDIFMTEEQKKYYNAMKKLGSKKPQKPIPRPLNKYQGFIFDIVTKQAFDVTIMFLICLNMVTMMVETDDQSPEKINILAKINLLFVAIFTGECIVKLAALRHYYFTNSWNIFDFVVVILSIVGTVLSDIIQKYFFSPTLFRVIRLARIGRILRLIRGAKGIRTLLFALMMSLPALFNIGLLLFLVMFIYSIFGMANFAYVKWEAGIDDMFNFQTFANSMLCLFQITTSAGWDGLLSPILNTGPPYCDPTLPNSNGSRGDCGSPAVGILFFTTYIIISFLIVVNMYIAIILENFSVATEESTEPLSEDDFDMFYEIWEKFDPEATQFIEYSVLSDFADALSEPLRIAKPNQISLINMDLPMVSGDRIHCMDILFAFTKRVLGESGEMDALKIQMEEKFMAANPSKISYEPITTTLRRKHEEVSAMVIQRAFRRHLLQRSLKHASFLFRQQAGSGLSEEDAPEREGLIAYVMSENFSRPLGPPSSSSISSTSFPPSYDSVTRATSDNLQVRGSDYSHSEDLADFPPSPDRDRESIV
Experimental: The inhibition of the compounds to hNav1.5 peak current was performed at room temperature using HEK293 cells that could express hNav1.5 stably. The holding voltage of the membrane was transferred to 0 mV from −120 mV for 50 ms and then restored to −50 mV for 8 s. After that, the membrane potential was renewed to −120 mV for 20 ms, followed by a depolarization to 0 mV for 50 ms. At last, the potential was recovered to the holding voltage −120 mV for 30 ms. This progress was performed every 20 s. The compounds were administrated when the voltage of hNav1.5 was stable. Every concentration was tested for 5 min and all compounds were tested at several concentrations and with multiple cells.

[6] = system: ICR (CD−1) male mice; test: Formalin test (mouse, phase II paw licking); assay type: in vivo; conditions: for inhibition in vivo at 10 mg/kg: Mus musculus, ip, read-out: % Analgesia (formalin test)
Experimental: The formalin test was carried out using the method described previously. During the formalin test, Institute of Cancer Research (ICR; CD−1) male mice (weight: 22–25 g) were acclimated to the environment for two days before the experiment with food and water available freely. The mice were housed under a 12 h/12 h light/dark cycle. The temperature and humidity of the room were kept at 25 ± 2 °C and 50–60%, respectively. The mice were divided into a vehicle group, a ralfinamide group, and test compound groups randomly, with eight mice in each group. All compounds were dissolved in saline and administered by intraperitoneal injection (n = 8) or intragastric administration by mouth (n = 8) at 10 mg/kg. The vehicle group was given the same volume of saline.
After administration, the mice were placed into polyvinyl chloride (PVC) observation chambers. Thirty minutes later, the mice were injected subcutaneously with 20 μL of 2.7% formalin solution into the surface of their right hind paw and were returned to their PVC chambers immediately to observe their behavior. The cumulative time each mouse licked its right hind paw during phase II (15–30 min) was recorded as its painful time in phase II. The analgesic effects of the compounds were presented as the mean ± standard deviation. The data were analyzed by SPSS using one-way analysis of variance followed by Dunnett’s test. The analgesic activity of the test compounds was calculated according to the following formula. %Analgesia=Average Time (Vehicle)−Average Time (Drug)/Average Time (Vehicle)× 100%

[7] = biological target: T3, hNav1.7 (Homo sapiens, UniProt Q15858); test: Whole-cell patch clamp assay for hNav1.7 inhibition (HEK293 cells stably expressing hNav1.7); assay type: cell-based; conditions: for inhibition at 10 µM: HEK293, TTX-sensitive Nav1.7 current, mean ± SD; for IC50: TTX-sensitive inactivated Nav1.7 current
T3 construct: expressed in transfected cells; host or cells: HEK293
T3 sequence (Q15858 whole entry): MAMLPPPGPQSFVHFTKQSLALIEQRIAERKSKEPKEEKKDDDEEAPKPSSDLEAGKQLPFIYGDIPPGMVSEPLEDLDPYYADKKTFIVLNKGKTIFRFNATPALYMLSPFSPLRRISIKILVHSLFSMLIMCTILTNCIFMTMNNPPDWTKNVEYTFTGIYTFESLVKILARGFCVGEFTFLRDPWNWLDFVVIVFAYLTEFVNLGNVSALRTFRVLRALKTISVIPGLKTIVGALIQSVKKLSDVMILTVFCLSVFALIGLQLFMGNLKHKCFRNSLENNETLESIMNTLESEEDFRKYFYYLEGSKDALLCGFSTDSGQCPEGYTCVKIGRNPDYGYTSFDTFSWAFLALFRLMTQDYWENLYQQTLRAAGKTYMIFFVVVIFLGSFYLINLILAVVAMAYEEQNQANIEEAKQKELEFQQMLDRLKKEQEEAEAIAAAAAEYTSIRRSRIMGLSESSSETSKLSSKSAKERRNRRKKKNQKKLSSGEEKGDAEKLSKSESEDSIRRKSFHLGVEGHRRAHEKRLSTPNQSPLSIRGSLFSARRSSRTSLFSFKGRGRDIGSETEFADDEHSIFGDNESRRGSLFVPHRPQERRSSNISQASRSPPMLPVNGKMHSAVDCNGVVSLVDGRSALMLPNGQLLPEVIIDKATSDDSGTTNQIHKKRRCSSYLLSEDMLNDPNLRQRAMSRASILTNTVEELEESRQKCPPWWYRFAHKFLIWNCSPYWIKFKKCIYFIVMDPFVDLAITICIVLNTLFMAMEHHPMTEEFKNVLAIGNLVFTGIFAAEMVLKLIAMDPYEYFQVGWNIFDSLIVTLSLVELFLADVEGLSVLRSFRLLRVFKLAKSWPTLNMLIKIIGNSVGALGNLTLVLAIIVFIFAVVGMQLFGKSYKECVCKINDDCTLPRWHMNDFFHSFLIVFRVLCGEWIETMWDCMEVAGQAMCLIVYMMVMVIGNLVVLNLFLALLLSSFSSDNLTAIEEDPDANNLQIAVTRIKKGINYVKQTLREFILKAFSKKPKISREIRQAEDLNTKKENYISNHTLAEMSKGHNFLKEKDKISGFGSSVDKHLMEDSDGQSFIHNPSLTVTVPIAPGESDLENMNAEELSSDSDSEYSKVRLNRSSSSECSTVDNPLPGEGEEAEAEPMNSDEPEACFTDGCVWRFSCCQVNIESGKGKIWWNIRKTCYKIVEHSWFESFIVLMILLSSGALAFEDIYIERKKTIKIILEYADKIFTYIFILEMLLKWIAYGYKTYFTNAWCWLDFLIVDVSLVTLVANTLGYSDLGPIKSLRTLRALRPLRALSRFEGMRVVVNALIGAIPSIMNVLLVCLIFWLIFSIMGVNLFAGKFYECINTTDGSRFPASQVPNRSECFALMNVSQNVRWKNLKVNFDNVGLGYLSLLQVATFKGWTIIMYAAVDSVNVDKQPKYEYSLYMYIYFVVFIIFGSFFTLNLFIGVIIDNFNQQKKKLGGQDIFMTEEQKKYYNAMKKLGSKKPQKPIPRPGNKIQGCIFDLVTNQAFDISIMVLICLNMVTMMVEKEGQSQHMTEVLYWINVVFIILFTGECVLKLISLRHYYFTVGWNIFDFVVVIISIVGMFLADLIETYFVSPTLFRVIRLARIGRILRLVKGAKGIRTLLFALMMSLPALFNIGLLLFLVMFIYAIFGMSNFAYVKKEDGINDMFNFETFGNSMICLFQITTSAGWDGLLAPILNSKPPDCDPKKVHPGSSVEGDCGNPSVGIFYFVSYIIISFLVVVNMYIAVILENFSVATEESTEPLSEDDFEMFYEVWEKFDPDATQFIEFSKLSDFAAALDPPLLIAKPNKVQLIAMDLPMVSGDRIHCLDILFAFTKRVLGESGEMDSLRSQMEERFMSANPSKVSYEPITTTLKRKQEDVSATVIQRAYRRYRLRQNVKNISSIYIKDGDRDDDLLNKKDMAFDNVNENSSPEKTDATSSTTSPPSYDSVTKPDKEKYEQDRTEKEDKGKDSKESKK
Experimental: The compounds were tested as hNav1.7 peak current inhibitors at room temperature using human embryonic kidney 293 cells stably expressing hNav1.7. The holding voltage was depolarized to 0 mV from −120 mV for 20 ms and restored to −75 mV for 8 s. After that, the membrane potential was recovered to −120 mV for 20 ms and then depolarized to 0 mV for another 20 ms. Finally, the voltage was renewed to −120 mV for 30 ms. The potential was applied every 20 s. The compounds were administered when the voltage of hNav1.7 recorded by the whole-cell patch clamp was stable. Every compound concentration was tested for 5 min, and all compounds were tested at several concentrations and with multiple cells.

[8] = system: ICR (CD−1) male mice; test: Formalin test (mouse, phase II paw licking); assay type: in vivo
[9] = 10 mg/kg, i.p., phase II (15–30 min), mean ± SD, n = 8
[10] = read-out: Inhibitory Effect against Nav1.7, Activated State (TP−1)
[11] = read-out: Inhibitory Effect against Nav1.7, Inactivated State (TP−2)

SMILES	IC50 [1] [µM]	% Analgesia (acetic acid-induced writhing test) [2]	Analgesic effect in mouse hotplate assay (in words) [3]	Analgesic effect in tail flick assay (in words) [4]	inhibition at 10 µM [5] [%]	Inhibitory activity against Nav1.5 (in words) [5]	inhibition in vivo at 10 mg/kg [6, 9] [%]	Percentage of analgesia relative to ralfinamide (times higher) ([6]; formalin test, 10 mg/kg)	inhibition at 10 µM [7, 10] [%]	inhibition at 10 µM [7, 11] [%]	IC50 ([7]; Table 4) [µM]	Potency against Nav1.8 compared to ralfinamide (in words) ([1]; ratio of IC50 values, Table 5)	Analgesic response (formalin test) ([8]; 5 mg/kg, intraperitoneal injection, dose-effect relationship assay) [%]	Dose dependence of analgesic activity (in words) ([8]; formalin test, 2.5 mg/kg, 5 mg/kg and 10 mg/kg by intraperitoneal injection)	% Analgesia (formalin test) [6, 9]	Analgesic activity after intragastric administration by mouth (in words) ([6]; formalin test, oral administration assay, compared to ralfinamide)	Nav1.7 IC50 compared to ralfinamide (in words) ([7]; ratio of IC50 values, Table 4)
C[C@H](NCc1ccc(COc2ccc3ccoc3c2)cc1)C(N)=O [Compound 6f, (S)-2-((4-((Benzofuran-6-yloxy)methyl)benzyl)amino)propanamide]	4.8 ± 0.7	63.2 ± 13.3 ^☆ @ %	no analgesic effect	no analgesic effect	48 ± 0.1	moderate inhibitory activity	67.8 ± 22.7	1.5–2 times	12.4 ± 2.9	50.4 ± 3.6	8.1 ± 1.1	–	–	–	–	–	–
C[C@H](NCc1cccc(COc2ccc3ccoc3c2)c1)C(N)=O [Compound 6e, (S)-2-((3-((Benzofuran-6-yloxy)methyl)benzyl)amino)propanamide]	10.1 ± 1.9	45.7 ± 17.2 ^☆ %	no analgesic effect	no analgesic effect	70.1 ± 2.2	moderate inhibitory activity	71.7 ± 22	1.5–2 times	11.4 ± 1.6	58.5 ± 1.8	9.4 ± 2.7	–	–	–	–	–	–
C[C@H](NCc1cccc(COc2cccc3occc23)c1)C(N)=O [Compound 6a, (S)-2-((3-((Benzofuran-4-yloxy)methyl)benzyl)amino)propanamide]	4.3 ± 0.5	49.7 ± 11.3 ^☆ %	no analgesic effect	no analgesic effect	66.8 ± 1.5	moderate inhibitory activity	84	1.5–2 times	15.6 ± 0.8	61.8 ± 0.2	2.3 ± 0.2	nearly nine-fold more potent	69.6	dose-dependent activity	84.0 ± 16.2 ^☆ * %	higher analgesic activity than ralfinamide	three times lower
